{
  "source": "paper PMC6942202",
  "about": "(Bioorganic & medicinal chemistry letters, 2019)",
  "key": {"NgGCYH-IB [1]": {"target": "T1, NgGCYH-IB (Neisseria gonorrhoeae, UniProt Q5F9K6)", "T1 sequence (Q5F9K6 whole entry)": "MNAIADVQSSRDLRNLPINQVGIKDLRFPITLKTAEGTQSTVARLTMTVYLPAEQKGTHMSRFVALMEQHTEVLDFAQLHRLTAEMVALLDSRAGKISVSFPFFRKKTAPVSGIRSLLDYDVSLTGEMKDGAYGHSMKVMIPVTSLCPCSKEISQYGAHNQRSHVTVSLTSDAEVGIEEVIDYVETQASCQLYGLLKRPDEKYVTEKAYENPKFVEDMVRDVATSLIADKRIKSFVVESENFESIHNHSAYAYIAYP", "assay": "Inhibition of NgGCYH-IB enzyme activity", "assay_type": "biochemical, N. gonorrhoeae", "conditions": "in words"}, "HsGCYH-IA": {"target": "T2, HsGCYH-IA (Homo sapiens, UniProt P30793)", "T2 sequence (P30793 43-250 limits assumed)": "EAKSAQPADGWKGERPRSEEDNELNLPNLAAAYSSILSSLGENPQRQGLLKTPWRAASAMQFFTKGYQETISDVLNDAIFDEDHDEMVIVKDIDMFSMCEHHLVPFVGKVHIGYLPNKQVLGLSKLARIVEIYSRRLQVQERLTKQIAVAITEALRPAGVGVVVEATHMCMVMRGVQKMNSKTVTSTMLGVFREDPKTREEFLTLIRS", "assay": "Steady-state kinetic analysis of HsGCYH-IA", "assay_type": "biochemical, H. sapiens", "conditions": "read-out: KM of HsGCYH-IA for GTP; fluorescence assay, GTP as substrate"}, "NgGCYH-IB [2]": {"target": "T1, NgGCYH-IB", "conditions": "read-out: KM of NgGCYH-IB for GTP; cited from earlier work"}},
  "data": [
    {"smiles": "Nc1nc(OCCO)c2[nH]c(=O)n([C@@H]3O[C@H](CO)[C@@H](O)[C@H]3O)c2n1", "note": "[G1]", "values": [
      {"measurement": "Selectivity between HsGCYH-IA and NgGCYH-IB from IC50 values", "setting": "NgGCYH-IB [1]", "result": "modest selectivity for HsGCYH-IA"}
    ]},
    {"smiles": "Nc1nc(OC[C@H](O)CO)c2[nH]c(=O)n([C@@H]3O[C@H](CO)[C@@H](O)[C@H]3O)c2n1", "note": "[G3]", "values": [
      {"measurement": "Selectivity between HsGCYH-IA and NgGCYH-IB from IC50 values", "setting": "NgGCYH-IB [1]", "result": "three-fold more potent against NgGCYH-IB"}
    ]},
    {"smiles": "Nc1nc2c(ncn2[C@@H]2O[C@H](COP(=O)(O)OP(=O)(O)OP(=O)(O)O)[C@@H](O)[C@H]2O)c(=O)[nH]1", "note": "[GTP]", "values": [
      {"measurement": "Km", "setting": "HsGCYH-IA", "result": "867 ± 57", "unit": "µM"},
      {"measurement": "Km", "setting": "NgGCYH-IB [2]", "result": 9, "unit": "µM"}
    ]}
  ]
}
